Assay results as given in article PMC6848086, “Light on the cell cycle of the non-photosynthetic bacterium Ramlibacter tataouinensis” (Scientific Reports, 2019).

Target: T1, RtBphP2 (Ramlibacter tataouinensis, UniProt F5Y6C4)
T1 construct: gene Rta_28950; full-length; His6 tag (pBAD/HisB); co-expressed with Bradyrhizobium sp; ORS278 heme oxygenase in E. coli TOP10; dimer
Assay: gel electrophoresis with zinc fluorescence; absorption spectra of purified holoprotein
Type: binding
Conditions: covalent; chromophore formed in E. coli by co-expressed heme oxygenase

T1 sequence (F5Y6C4 entry or part of it): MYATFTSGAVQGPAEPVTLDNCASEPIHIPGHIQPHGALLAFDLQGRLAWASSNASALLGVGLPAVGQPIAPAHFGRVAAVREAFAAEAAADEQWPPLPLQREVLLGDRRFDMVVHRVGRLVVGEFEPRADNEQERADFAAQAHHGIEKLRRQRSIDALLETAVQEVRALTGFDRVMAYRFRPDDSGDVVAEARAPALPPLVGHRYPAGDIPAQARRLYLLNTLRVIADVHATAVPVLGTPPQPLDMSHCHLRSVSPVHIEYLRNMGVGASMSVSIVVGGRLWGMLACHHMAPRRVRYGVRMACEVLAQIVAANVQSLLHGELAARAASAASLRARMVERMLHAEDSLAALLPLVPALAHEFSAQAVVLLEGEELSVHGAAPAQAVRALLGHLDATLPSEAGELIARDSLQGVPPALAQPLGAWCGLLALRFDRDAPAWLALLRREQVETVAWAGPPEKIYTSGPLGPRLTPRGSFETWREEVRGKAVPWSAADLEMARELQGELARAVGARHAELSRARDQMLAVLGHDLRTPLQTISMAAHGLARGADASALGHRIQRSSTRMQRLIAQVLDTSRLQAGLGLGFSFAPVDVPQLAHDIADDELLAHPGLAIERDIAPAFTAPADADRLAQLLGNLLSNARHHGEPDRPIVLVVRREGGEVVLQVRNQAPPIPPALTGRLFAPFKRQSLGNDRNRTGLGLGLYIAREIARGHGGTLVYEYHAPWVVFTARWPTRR

Question: Which “gel electrophoresis with zinc fluorescence; absorption spectra of purified holop” value does the source give for `C=CC1=C(C)/C(=C/C2=NC(=C\c3[nH]c(/C=C4\NC(=O)C(C)=C4C=C)c(C)c3CCC(=O)O)/C(CCC(=O)O)=C2C)NC1=O` [biliverdin] here?
Answer: zinc fluorescence demonstrated that the biliverdin (BV) is covalently bound in both proteins
